System: Human immunodeficiency virus 1
Assay: microbe, parasite or virus in culture

IC90: 4.1 nM
SMILES: CC(C)CN(C[C@@H](O)[C@H](Cc1ccccc1)NC(=O)O[C@H]1CO[C@H]2OCC[C@H]21)S(=O)(=O)c1ccc(N)cc1

— ChEMBL document CHEMBL2150973, “Dual inhibitors for aspartic proteases HIV-1 PR and renin: advancements in AIDS-hypertension-diabetes linkage via molecular dynamics, inhibition assays, and binding free energy calculations” (J Med Chem, 2012)
